Reference: US8946266B2, “Substituted triazole and imidazole derivatives as gamma secretase modulators” (Janssen Pharmaceuticals, Inc., priority 2009, dated 2015)

What was measured:
Aβtotal [1] = test: In vivo efficacy, Method 2: brain soluble Aβtotal lowering 4 h after a single oral dose, ELISA (Table 4b); parameters: species or system mouse; details: dose 30 mg/kg oral dosing
Text: (§1) To determine whether acute administration of an Aβ42 lowering agent would reduce Aβ42 levels in vivo, non-transgenic rodents, e.g. mice or rats were used. Animals treated with the Aβ42 lowering agent were examined and compared to those untreated or treated with vehicle and brain levels of soluble Aβ42 and total Aβ were quantitated by standard techniques, for example, using ELISA. Treatment periods varied from hours (h) to days and were adjusted based on the results of the Aβ42 lowering once a time course of onset of effect could be established.
(§2) A typical protocol for measuring Aβ42 lowering in vivo is shown but it is only one of many variations that could be used to optimize the levels of detectable Aβ. For example, Aβ42 lowering compounds were formulated in 20% of Captisol® (a sulfobutyl ether of β-cyclodextrin) in water or 20% hydroxypropyl β cyclodextrin. The Aβ42 lowering agents were administered as a single oral dose or by any acceptable route of administration to overnight fasted animals. After 4 h, the animals were sacrificed and Aβ42 levels were analysed.
(§3) Blood was collected by decapitation and exsanguinations in EDTA-treated collection tubes. Blood was centrifuged at 1900 g for 10 minutes (min) at 4° C. and the plasma recovered and flash frozen for later analysis. The brain was removed from the cranium and hindbrain. The cerebellum was removed and the left and right hemisphere were separated. The left hemisphere was stored at −18° C. for quantitative analysis of test compound levels. The right hemisphere was rinsed with phosphate-buffered saline (PBS) buffer and immediately frozen on dry ice and stored at −80° C. until homogenization for biochemical assays.
(§4) Mouse brains from non-transgenic animals were resuspended in 8 volumes of 0.4% DEA (diethylamine)/50 mM NaCl containing protease inhibitors (Roche-11873580001 or 04693159001) per gram of tissue, e.g. for 0.158 g brain, add 1.264 ml of 0.4% DEA. All samples were homogenized in the FastPrep-24 system (MP Biomedicals) using lysing matrix D (MPBio #6913-100) at 6 m/s for 20 seconds. Homogenates were centrifuged at 221.300×g for 50 min. The resulting high speed supernatants were then transferred to fresh eppendorf tubes. Nine parts of supernatant were neutralized with 1 part 0.5 M Tris-HCl pH 6.8 and used to quantify Aβtotal and Aβ42.
(§5) To quantify the amount of Aβtotal and Aβ42 in the soluble fraction of the brain homogenates, Enzyme-Linked-Immunosorbent-Assays were used. Briefly, the standards (a dilution of synthetic Aβ1-40 and Aβ1-42, Bachem) were prepared in 1.5 ml Eppendorf tube in Ultraculture, with final concentrations ranging from 10000 to 0.3 pg/ml. The samples and standards were co-incubated with HRPO-labelled N-terminal antibody for Aβ42 detection and with the biotinylated mid-domain antibody 4G8 for Aβtotal detection. 50 μl of conjugate/sample or conjugate/standards mixtures were then added to the antibody-coated plate (the capture antibodies selectively recognize the C-terminal end of Aβ42, antibody JRF/cAβ42/26, for Aβ42 detection and the N-terminus of Aβ, antibody JRF/rAβ/2, for Aβtotal detection). The plate was allowed to incubate overnight at 4° C. in order to allow formation of the antibody-amyloid complex. Following this incubation and subsequent wash steps the ELISA for Aβ42 quantification was finished by addition of Quanta Blu fluorogenic peroxidase substrate according to the manufacturer's instructions (Pierce Corp., Rockford, Ill.). A reading was performed after 10 to 15 min (excitation 320/emission 420).
For Aβtotal detection, a Streptavidine-Peroxidase-Conjugate was added, followed 60 min later by an additional wash step and addition of Quanta Blu fluorogenic peroxidase substrate according to the manufacturer's instructions (Pierce Corp., Rockford, Ill.). A reading was performed after 10 to 15 min (excitation 320 nm/emission 420 nm).
(§6) The results are shown in Table 4b (dose 30 mg/kg oral dosing): […]

Aβ42 [2] = test: γ-secretase-modulating activity, Method 2: Aβ42 Alphalisa in supernatant of SKNBE2 cells carrying APP 695-wild type (Table 3b); type: cell-based; details: overnight
In short: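 SKNBE2 cells expressing wild-type APP695 were incubated overnight at 37° C. with test compound. Secreted Aβ42 was then measured by AlphaLISA, using a C-terminal Aβ42 antibody paired with an N-terminal Aβ antibody. IC50 came from a 4-parameter fit of percent of compound-free control.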

Aβtotal [3] = test: γ-secretase-modulating activity, Method 2: Aβtotal Alphalisa in supernatant of SKNBE2 cells carrying APP 695-wild type (Table 3b); type: cell-based; details: overnight, read-out: IC50 Aβtot
In short: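 SKNBE2 cells expressing wild-type APP 695 were incubated overnight at 37 °C, 5% CO2 with test compound at a range of concentrations. Aβtotal in supernatant was measured by AlphaLISA sandwich (N-terminal JRF/AβN/25 acceptor, biotinylated mid-region 4G8 donor); IC50 from 4-parameter fit of percent control versus log concentration.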

Aβ42 [4] = test: In vivo efficacy, Method 2: brain soluble Aβ42 lowering 4 h after a single oral dose, ELISA (Table 4b); parameters: species or system mouse; details: dose 30 mg/kg oral dosing
Text: as §1, §2, §3, §4, §5
In this model at least 20% Aβ42 lowering compared to untreated animals would be advantageous.
as §6

Structure (SMILES) | IC50 (Aβ42 [2]) | IC50 (Aβtotal [3]) | Aβtotal (% Ctrl) _Mean (Aβtotal [1]) | Aβ42 (% Ctrl) _Mean (Aβ42 [4]) | Aβtotal (% Ctrl) _Mean (Aβtotal [1]; 30 mg/kg) | Aβ42 (% Ctrl) _Mean (Aβ42 [4]; 30 mg/kg)
COc1nc(-c2nc(Nc3cccc(Cl)c3)n(C)n2)ccc1-n1cnc(C)c1 [Compound 100] | 28 nM | > 10000 nM | −4 % Ctrl | 12 % Ctrl |  | 
COc1cc(-c2nc(Nc3ccccc3C(C)C)n(C)n2)ccc1-n1cnc(C)c1 [Compound 99] | 19 nM | > 10000 nM | −2 % Ctrl | 58 % Ctrl |  | 
COc1cc(-c2nc(Nc3c(F)cccc3Cl)n(C)n2)ccc1-n1cnc(C)c1 [Compound 125] | 85 nM | > 10000 nM | 11 % Ctrl | 2 % Ctrl |  | 
COc1cc(-c2nc(Nc3ccccc3F)n(C)n2)ccc1-n1cnc(C)c1 [Compound 105] | 132 nM | > 10000 nM | −7 % Ctrl | 24 % Ctrl |  | 
COCc1ccccc1Nc1nc(-c2ccc(-n3cnc(C)c3)c(OC)c2)nn1C.Cl [Compound 204] | 110 nM | > 10000 nM | 2 % Ctrl | 41 % Ctrl |  | 
COc1cc(-c2nc(Nc3cc(Br)ccc3F)n(C)n2)ccc1-n1cnc(C)c1 [Compound 303] | 40 nM | > 10000 nM | 23 % Ctrl | 33 % Ctrl |  | 
COc1cc(-c2nc(Nc3cccc(Cl)c3C)n(C)n2)ccc1-n1cnc(C)c1 [Compound 129] | 25 nM | > 10000 nM | 9 % Ctrl | 56 % Ctrl |  | 
COc1nc(-c2nc(Nc3ccccc3C(F)(F)F)n(C)n2)ccc1-n1cnc(C)c1 [Compound 132] | 135 nM | > 10000 nM | −1 % Ctrl | 39 % Ctrl |  | 
COc1cc(-c2nc3n(n2)CCC[C@@H]3c2ccccc2C(F)(F)F)ccc1-n1cnc(C)c1 [Compound 260] | 457 nM | > 15000 nM | −9 % Ctrl | −1 % Ctrl |  | 
COc1cc(-c2nc(Nc3cccc(OC(F)(F)F)c3)n(C)n2)ccc1-n1cnc(C)c1 [Compound 181] | 25 nM | 5750 nM | 9 % Ctrl | 28 % Ctrl |  | 
COc1cc(-c2nc3n(n2)CCOC3c2ccccc2C(F)(F)F)ccc1-n1cnc(C)c1 (stereo not drawn) [Compound 306] | 71 nM | > 10000 nM |  |  | −2 % Ctrl | 22 % Ctrl
COc1cc(-c2nc(Nc3cccc(Cl)c3C(F)(F)F)n(C)n2)ccc1-n1cnc(C)c1 [Compound 169] | 41 nM | > 10000 nM | 9 % Ctrl | 57 % Ctrl |  | 
COc1nc(-c2nc(Nc3cccc(F)c3C(F)(F)F)n(C)n2)ccc1-n1cnc(C)c1 [Compound 138] | 50 nM | > 10000 nM | 17 % Ctrl | 46 % Ctrl |  | 
COc1cc(-c2nc(Nc3cc(C(F)(F)F)cc(F)c3F)n(C)n2)ccc1-n1cnc(C)c1 [Compound 140] | 20 nM | > 10000 nM | 8 % Ctrl | 33 % Ctrl |  | 
COc1cc(-c2nc(Nc3cc(Cl)ccc3F)n(C)n2)ccc1-n1cnc(C)c1 [Compound 123] | 58 nM | > 10000 nM | 31 % Ctrl | 36 % Ctrl |  | 
COc1cc(-c2nc3n(n2)CCCC3c2cc(OC(F)(F)F)ccc2F)ccc1-n1cnc(C)c1 (stereo not drawn) [Compound 265] | 19 nM | > 10000 nM | 22 % Ctrl | 55 % Ctrl |  | 
COc1ccc(C(F)(F)F)cc1Nc1nc(-c2ccc(-n3cnc(C)c3)c(OC)c2)nn1C [Compound 217] | 26 nM | 6460 nM | −4 % Ctrl | 35 % Ctrl |  | 
COc1nc(-c2nc(Nc3cccc(C(F)(F)F)c3F)n(C)n2)ccc1-n1cnc(C)c1 [Compound 167] | 38 nM | > 15000 nM | −1 % Ctrl | 52 % Ctrl |  | 
COc1cc(-c2nc(Nc3ccccc3OC(F)F)n(C)n2)ccc1-n1cnc(C)c1 [Compound 310] | 44 nM | > 10000 nM | 20 % Ctrl | 45 % Ctrl |  | 
COc1nc(-c2nc(Nc3cc(Cl)ccc3F)n(C)n2)ccc1-n1cnc(C)c1 [Compound 117] | 60 nM | > 10000 nM | 17 % Ctrl | 44 % Ctrl |  | 
COc1cc(-c2nc3n(n2)CCC[C@H]3c2ccccc2C(F)(F)F)ccc1-n1cnc(C)c1 [Compound 261] | 24 nM | > 15000 nM | 6 % Ctrl | 46 % Ctrl |  | 

The next lines start with results.

IC50 (Aβ42 [2]) | IC50 (Aβtotal [3]) | Structure (SMILES) | Aβtotal (% Ctrl) _Mean (Aβtotal [1]) | Aβ42 (% Ctrl) _Mean (Aβ42 [4]) | Aβtotal (% Ctrl) _Mean (Aβtotal [1]; 30 mg/kg) | Aβ42 (% Ctrl) _Mean (Aβ42 [4]; 30 mg/kg)
19 nM | > 10000 nM | COc1cc(-c2nc(Nc3ccc(F)c(C(F)(F)F)c3)n(C)n2)ccc1-n1cnc(C)c1 [Compound 152] | −9 % Ctrl | 10 % Ctrl |  | 
13 nM | > 10000 nM | COc1cc(-c2nc(Nc3cc(Cl)ccc3Cl)n(C)n2)ccc1-n1cnc(C)c1 [Compound 111] | 15 % Ctrl | 33 % Ctrl |  | 
11 nM | 3630 nM | COc1cc(-c2nc(Nc3cc(C(F)(F)F)ccc3F)n(C)n2)ccc1-n1cnc(C)c1 [Compound 162] | 2 % Ctrl | 35 % Ctrl |  | 
10 nM | > 10000 nM | COc1cc(-c2nc(Nc3cc(C(F)(F)F)cc(OC)c3F)n(C)n2)ccc1-n1cnc(C)c1 [Compound 203] | 6 % Ctrl | 54 % Ctrl |  | 
17 nM | > 10000 nM | COc1cc(C(F)(F)F)cc(Nc2nc(-c3ccc(-n4cnc(C)c4)c(OC)n3)nn2C)c1F [Compound 353] | 2 % Ctrl | 63 % Ctrl |  | 
5 nM | 8910 nM | COc1cc(Nc2nc(-c3ccc(-n4cnc(C)c4)c(OC)c3)nn2C)cc(C(F)(F)F)c1 [Compound 213] | 7 % Ctrl | 9 % Ctrl |  | 
13 nM | > 15000 nM | COc1nc(-c2nc(Nc3cc(OC(F)(F)F)ccc3F)n(C)n2)ccc1-n1cnc(C)c1 [Compound 184] | 15 % Ctrl | 69 % Ctrl |  | 
8 nM | > 10000 nM | COc1nc(-c2nc(Nc3cccc(C(F)(F)F)c3)n(C)n2)ccc1-n1cnc(C)c1 [Compound 153] | −6 % Ctrl | 14 % Ctrl |  | 
16 nM | > 10000 nM | COc1ccc(C)c(Nc2nc(-c3ccc(-n4cnc(C)c4)c(OC)c3)nn2C)c1 [Compound 199] | 5 % Ctrl | 39 % Ctrl |  | 
